Among the test systems are HCT-15 colon; OVCAR-4 ovarian; UACC-257 melanoma; TK-10 renal; IGROV1 ovarian; HCC-2998 colon; HCT-116 colon; HS 578T breast; NCI-H460 lung; MALME-3M melanoma.
Common to all, as to assay: growth of human tumour cells (NCI), 48 h

Where “and” joins values, the source holds several entries; their conditions need not be identical. Equal values may be shown once.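 Values below derive from 48-hour exposures of cells grown in 96-well plates, with endpoints linearly interpolated between the two concentrations bracketing the appropriate inhibition level. The concentration for 50% growth inhibition is given as GI50. Definition used: TGI = concentration required for complete inhibition of growth.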

In the case of `COc1ccc(CCN2CC=Cn3c2nc2ccccc2c3=O)cc1`, the GI50 in the assay with HCT-15 colon is 0.0185 µM; with OVCAR-4 ovarian it was 0.0637 µM; with UACC-257 melanoma, 20.5 µM; in the assay with TK-10 renal, 40 µM; in the assay on IGROV1 ovarian it was 50.9 nM; in the assay on HCC-2998 colon, 0.0332 µM. Besides, the GI50 with HCT-116 colon is 0.0347 µM; with HS 578T breast, 0.0329 µM; in the assay with NCI-H460 lung, 0.0358 µM. In addition, the TGI with HCT-15 colon was more than 45.7 µM; with OVCAR-4 ovarian, more than 96 µM; in the assay on UACC-257 melanoma it was more than 100 µM; in the assay on TK-10 renal, more than 100 µM; in the assay on IGROV1 ovarian, more than 50.3 µM; with HCC-2998 colon it was 35.5 µM. In addition, the figures for the TGI with HCT-116 colon, in the assay on HS 578T breast and in the assay with NCI-H460 lung were more than 100 µM, 77.4 µM and 14.4 µM, respectively.

For `C=C1C(O)C2C(=C(CC)C13CC3)C(=O)C(C)(C)C2OC` (configuration not stated), the GI50 was 59 µM in the assay with HCT-15 colon; more than 100 µM in the assay with MALME-3M melanoma; more than 100 µM with OVCAR-4 ovarian; 35.6 µM with UACC-257 melanoma; more than 100 µM in the assay on TK-10 renal; 23800 nM with IGROV1 ovarian. Further, the GI50 with HCT-116 colon was 28.3 µM; with HS 578T breast it was more than 100 µM; with NCI-H460 lung it was 39.3 µM. Besides, the TGI in the assay on HCT-15 colon, with MALME-3M melanoma, with OVCAR-4 ovarian, with UACC-257 melanoma, in the assay with TK-10 renal and with IGROV1 ovarian was more than 100 µM in each case. Further, the TGI with HCT-116 colon, with HS 578T breast and in the assay on NCI-H460 lung was more than 100 µM throughout.

Consider `COc1ccc2c(CN3CCCC[C@H]3C(=O)O)cc3cc4c(cc3c2c1)OCO4`, for which the GI50 in the assay with HCT-15 colon is 1.4 µM; with TK-10 renal, 5.47 µM; in the assay with HCC-2998 colon, 3.56 µM; in the assay on HS 578T breast it was 1.53 µM; with NCI-H460 lung, 0.359 µM. Also, the TGI in the assay on HCT-15 colon was 12.7 µM; with TK-10 renal, 60.2 µM; with HCC-2998 colon, more than 100 µM; in the assay with HS 578T breast, 4.4 µM; with NCI-H460 lung it was 2.23 µM.

In the case of `CC[C@@]1(O)C(=O)OCc2c1cc1n(c2=O)Cc2cc3cc4c(cc3nc2-1)OCO4`, the TGI in the assay with HCT-15 colon was more than 58.9 µM; in the assay with UACC-257 melanoma, 0.345 µM and 0.259 µM; in the assay with TK-10 renal it was 2.79 µM and 17.3 µM; with IGROV1 ovarian, 0.187 µM; with HCC-2998 colon, 0.208 µM; in the assay with HCT-116 colon it was 0.136 µM and 1.27 µM. In addition, the TGI in the assay on HS 578T breast was more than 100 µM; with NCI-H460 lung it was 0.0876 µM and 0.0232 µM. In addition, the GI50 was less than 0.0144 µM in the assay on MALME-3M melanoma; 0.111 µM in the assay on TK-10 renal; less than 34.1 nM in the assay on IGROV1 ovarian; less than 0.001 µM with HCT-116 colon; more than 100 µM with HS 578T breast.

With `CC(=O)N1CC(C)(C)c2c(C)c(O)c(C)c(C)c21`, the TGI in the assay on HCT-15 colon, with OVCAR-4 ovarian, in the assay on UACC-257 melanoma, with TK-10 renal, in the assay with IGROV1 ovarian and in the assay on HCC-2998 colon was more than 100 µM throughout. Further, the TGI in the assay on HCT-116 colon, in the assay with HS 578T breast and with NCI-H460 lung was more than 100 µM throughout.

Take `Cc1c(C(=O)Nc2ccccc2)sc2ncn(Cc3cccc(Cl)c3)c(=O)c12`: the GI50 with HCT-15 colon is 13.2 µM; in the assay with OVCAR-4 ovarian, 27.8 µM; in the assay on UACC-257 melanoma, 34.4 µM; in the assay on TK-10 renal, 11.7 µM; in the assay with IGROV1 ovarian, 15600 nM; with HCC-2998 colon, 4.67 µM. Moreover, the figures for the GI50 with HCT-116 colon, in the assay with HS 578T breast and with NCI-H460 lung were 19.2 µM, 42.6 µM and more than 100 µM, respectively. Besides, the TGI is more than 100 µM in the assay on HCT-15 colon; more than 100 µM with OVCAR-4 ovarian; more than 100 µM in the assay with UACC-257 melanoma; more than 100 µM in the assay on TK-10 renal; more than 100 µM in the assay on IGROV1 ovarian; 67.8 µM with HCC-2998 colon. The TGI in the assay with HCT-116 colon, in the assay with HS 578T breast and in the assay with NCI-H460 lung was more than 100 µM throughout.

For `O=C1CCCCCCCCCCC1CN1CCCC1` (configuration not stated), the TGI in the assay on HCT-15 colon was more than 100 µM; in the assay with MALME-3M melanoma, more than 100 µM; with UACC-257 melanoma it was 49.3 µM; in the assay with TK-10 renal it was more than 100 µM; in the assay on IGROV1 ovarian, more than 100 µM; in the assay on HCC-2998 colon it was 70.6 µM. Moreover, the TGI is more than 100 µM with HCT-116 colon, 84.7 µM with HS 578T breast and more than 100 µM with NCI-H460 lung.

Regarding `COC(C(=O)NN)c1ccccc1` (configuration not stated), the TGI in the assay on HCT-15 colon, in the assay with MALME-3M melanoma, with UACC-257 melanoma, in the assay with TK-10 renal, in the assay on IGROV1 ovarian and with HCC-2998 colon was more than 100 µM throughout. In addition, the TGI in the assay with HS 578T breast and with NCI-H460 lung was more than 100 µM throughout.

Turning to `CC1(C)C2CCC13C(=O)C1OC3(C2)C2C(=O)c3ccccc3C(=O)C12` (configuration not stated), the GI50 is 79.4 µM with HCT-15 colon; 39.7 µM in the assay with MALME-3M melanoma; more than 100 µM in the assay on UACC-257 melanoma; more than 100 µM in the assay on TK-10 renal; more than 100 µM with HCC-2998 colon; more than 100 µM with HCT-116 colon. The GI50 in the assay on HS 578T breast and in the assay on NCI-H460 lung was more than 100 µM throughout. For the same compound, the TGI in the assay with HCT-15 colon, in the assay on MALME-3M melanoma, in the assay with UACC-257 melanoma, in the assay on TK-10 renal, in the assay with HCC-2998 colon and in the assay on HCT-116 colon was more than 100 µM each time. Besides, the TGI with HS 578T breast and in the assay with NCI-H460 lung was more than 100 µM throughout.

As to `CC(C)CCCC(C)[C@H]1CCC2[C@@H]3CCC4Cc5nc6c(nc5C[C@]4(C)C3CC[C@@]21C)CC1CC[C@@H]2C(CC[C@@]3(C)C2CC[C@@H]3C(C)CCCC(C)C)[C@@]1(C)C6` (some centres not stated), the TGI in the assay with HCT-15 colon, with MALME-3M melanoma, in the assay with OVCAR-4 ovarian, in the assay on UACC-257 melanoma, in the assay on TK-10 renal and in the assay with IGROV1 ovarian was more than 100 µM throughout. For the same compound, the TGI in the assay on HCT-116 colon, in the assay with HS 578T breast and in the assay on NCI-H460 lung was more than 100 µM throughout.

For the compound `O=C1c2cc3c(cc2[C@@H]2[C@H]1c1ccc([N+](=O)[O-])cc1C(=O)N2CCCBr)OCO3`, the GI50 is less than 0.0226 µM with HCT-15 colon; less than 0.0189 µM in the assay on MALME-3M melanoma; 0.0771 µM in the assay on OVCAR-4 ovarian; less than 0.01 µM with UACC-257 melanoma; 0.134 µM in the assay with TK-10 renal; less than 13.6 nM in the assay with IGROV1 ovarian. Besides, the GI50 in the assay on HCC-2998 colon was less than 0.0125 µM; in the assay on HS 578T breast, 0.381 µM. Also, the TGI was 0.656 µM in the assay with HCT-15 colon; 0.168 µM in the assay with MALME-3M melanoma; 7 µM in the assay on OVCAR-4 ovarian; more than 100 µM in the assay with UACC-257 melanoma; 4.04 µM in the assay on TK-10 renal; 0.117 µM with HCC-2998 colon. Also, the TGI in the assay with HS 578T breast was determined as 11.5 µM.

`Cc1nc(Nc2ccccc2)sc1C(=O)CC(=O)C(=O)Nc1c(C(C)C)cccc1C(C)C`: the TGI in the assay on HCT-15 colon, in the assay on MALME-3M melanoma, in the assay on OVCAR-4 ovarian, with UACC-257 melanoma, in the assay on TK-10 renal and with IGROV1 ovarian was more than 100 µM throughout. The TGI in the assay with HCC-2998 colon, in the assay with HCT-116 colon and in the assay on NCI-H460 lung was more than 100 µM in each case.

With `Cc1ccccc1C1OC(=O)c2ccc3ccccc3c21` (configuration not stated), the TGI is 9.44 µM with HCT-15 colon; 14 µM with MALME-3M melanoma; 19.2 µM in the assay on OVCAR-4 ovarian; 12.2 µM in the assay with UACC-257 melanoma; more than 31.6 µM in the assay on TK-10 renal; more than 31.6 µM in the assay with IGROV1 ovarian. Besides, the values for the TGI in the assay on HCC-2998 colon, in the assay on HCT-116 colon and in the assay with NCI-H460 lung were 12 µM, 7.14 µM and 12.6 µM, respectively.

For the compound `CCCCOC(=O)N1CCN(/[N+]([O-])=N/Oc2ccc([N+](=O)[O-])cc2[N+](=O)[O-])CC1`, the GI50 in the assay with HCT-15 colon was 3.99 µM; with UACC-257 melanoma, 13.4 µM; with TK-10 renal, 10 µM; with IGROV1 ovarian it was 2170 nM; in the assay on HCT-116 colon, 2.07 µM; in the assay on HS 578T breast, 20.9 µM. The GI50 with NCI-H460 lung was 4.94 µM. The TGI in the assay with HCT-15 colon was 21.4 µM; with UACC-257 melanoma it was 29 µM; in the assay on TK-10 renal, 21.8 µM; with IGROV1 ovarian, 6.44 µM; in the assay with HCT-116 colon, 3.53 µM; with HS 578T breast, more than 100 µM. Moreover, the TGI in the assay with NCI-H460 lung is more than 100 µM.

As for `Cc1cc([N+](=O)[O-])c(NS(=O)(=O)c2cccc(C(=O)O)c2)cc1-c1cccnc1`, the GI50 with HCT-15 colon was more than 100 µM; in the assay with MALME-3M melanoma, more than 100 µM; in the assay with OVCAR-4 ovarian, more than 100 µM; with UACC-257 melanoma, more than 100 µM; in the assay on TK-10 renal it was more than 100 µM; in the assay on IGROV1 ovarian, more than 100000 nM. Besides, the GI50 in the assay on HCC-2998 colon, in the assay with HCT-116 colon and in the assay on NCI-H460 lung was more than 100 µM throughout. Besides, the TGI in the assay on HCT-15 colon, in the assay on MALME-3M melanoma, in the assay with OVCAR-4 ovarian, in the assay on UACC-257 melanoma, in the assay on TK-10 renal and in the assay with IGROV1 ovarian was more than 100 µM each time. The TGI in the assay on HCC-2998 colon, in the assay with HCT-116 colon and with NCI-H460 lung was more than 100 µM in each case.

Turning to `CCOC(=O)CC[C@H](NC(=O)c1nc[nH]c1[N+](=O)[O-])C(=O)OCC`, the TGI with HCT-15 colon, with MALME-3M melanoma, with OVCAR-4 ovarian, with UACC-257 melanoma, in the assay with TK-10 renal and in the assay with IGROV1 ovarian was more than 100 µM each time. Further, the TGI with HCC-2998 colon, in the assay with HCT-116 colon and in the assay on NCI-H460 lung was more than 100 µM each time.

Values taken from PubChem BioAssay (NCI).
